Series [1] deals with RAW264.7. Briefly: Anti-inflammatory activity against LPS-induced mouse RAW264.7 cells assessed as decrease in p65 phosphorylation at 1 uM by Western blotting analysis. It is filed as functional, cell-based. (In general: In western blotting, separated proteins are transferred to a membrane and probed.)
For series [2], the system named is Mus musculus. Put plainly: Anti-inflammatory activity against LPS-stimulated BALB/c mouse acute lung injury model assessed as decrease in IkappaB phosphorylation at 2.5 mg/kg, po administered for 3 days by Western blotting analysis. It is filed as functional, organism-based. As to conditions: time 3.0 day.
Series [3] relates to Mus musculus. Put plainly: Anti-inflammatory activity against LPS-stimulated BALB/c mouse acute lung injury model assessed as decrease in STING expression at 2.5 mg/kg, po administered for 3 days by Western blotting analysis. Format: functional, organism-based. The following applies: time 3.0 day.
For series [4], the system named is Mus musculus. Put plainly: Anti-inflammatory activity against LPS-stimulated BALB/c mouse acute lung injury model assessed as decrease in IRF3 phosphorylation at 2.5 mg/kg, po administered for 3 days by Western blotting analysis. It is filed as functional, organism-based. The following applies: time 3.0 day.
In series [5] the test system is Mus musculus. Put plainly: Anti-inflammatory activity against LPS-stimulated BALB/c mouse acute lung injury model assessed as decrease in TBK1 phosphorylation at 2.5 mg/kg, po administered for 3 days by Western blotting analysis. Format: functional, organism-based. The following applies: time 3.0 day.
Series [6] relates to RAW264.7. Put plainly: Anti-inflammatory activity against LPS-induced mouse RAW264.7 cells assessed as decrease in IFN-beta expression preincubated for 2 hrs followed by LPS addition and measured after 12 hrs by ELISA. It is filed as functional, cell-based. The following applies: time 14.0 hrs. (An ELISA detects its analyte on a solid surface through an enzyme-linked reagent.)

The subject of series [7] is RAW264.7. Briefly: Anti-inflammatory activity against LPS-induced mouse RAW264.7 cells assessed as inhibition of IRF3 nuclear translocation preincubated for 2 hrs followed by LPS addition and measured after 2 hrs by FITC/DAPI staining based laser confocal microscopy analysis. Format: functional, cell-based. As to conditions: time 4.0 hrs.
In series [8] the test system is RAW264.7. Briefly: Anti-inflammatory activity against LPS-induced mouse RAW264.7 cells assessed as decrease in STING protein level at 1 uM by Western blotting analysis. It is filed as functional, cell-based.
The subject of series [9] is RAW264.7. Briefly: Anti-inflammatory activity against LPS-induced mouse RAW264.7 cells assessed as decrease in IRF3 phosphorylation at 1 uM by Western blotting analysis. Format: functional, cell-based.
Series [10] concerns RAW264.7. Put plainly: Anti-inflammatory activity against LPS-induced mouse RAW264.7 cells assessed as decrease in IL-6 expression preincubated for 2 hrs followed by LPS addition and measured after 12 hrs by ELISA. It is filed as functional, cell-based. The following applies: time 14.0 hrs.
Series [11] has as its system RAW264.7. Put plainly: Anti-inflammatory activity against LPS-induced mouse RAW264.7 cells assessed as decrease in IkappaB phosphorylation at 1 uM by Western blotting analysis. Format: functional, cell-based.
Series [12] relates to RAW264.7. Put plainly: Anti-inflammatory activity against LPS-induced mouse RAW264.7 cells assessed as inhibition of p65 nuclear translocation preincubated for 2 hrs followed by LPS addition and measured after 2 hrs by FITC/DAPI staining based laser confocal microscopy analysis. Format: functional, cell-based. The following applies: time 4.0 hrs.
The subject of series [13] is RAW264.7. Briefly: Anti-inflammatory activity against LPS-induced mouse RAW264.7 cells assessed as decrease in TNF-alpha expression preincubated for 2 hrs followed by LPS addition and measured after 12 hrs by ELISA. Format: functional, cell-based. As to conditions: time 14.0 hrs.
Series [14] has as its system Mus musculus. Put plainly: Anti-inflammatory activity against LPS-stimulated BALB/c mouse acute lung injury model assessed as decrease in p65 phosphorylation at 2.5 mg/kg, po administered for 3 days by Western blotting analysis. It is filed as functional, organism-based. As to conditions: time 3.0 day.
Series [15] relates to RAW264.7. Put plainly: Anti-inflammatory activity against LPS-induced mouse RAW264.7 cells assessed as decrease in TBK1 phosphorylation at 1 uM by Western blotting analysis. Format: functional, cell-based.
Series [16] is described as follows: Cytotoxicity against mouse RAW264.7 cells assessed as cell viability at 40 uM incubated for 24 hrs by MTT assay relative to control. The following applies: read-out: Activity. Format: toxicity, cell-based. For orientation: Tetrazolium dyes change colour on reduction, which living cells bring about.
Series [17] concerns RAW264.7. Put plainly: Anti-inflammatory activity against LPS-induced mouse RAW264.7 cells assessed as inhibition of NO production at 20 uM preincubated for 2 hrs followed by LPS addition and measured after 24 hrs by Griess reagent-based microplate reader analysis relative to control. Format: functional. Also on record: scale not given: the % may be the effect or the level left. The following applies: time 26 hrs.

Series [18] concerns RAW264.7. Put plainly: Anti-inflammatory activity against LPS-induced mouse RAW264.7 cells assessed as inhibition of NO production at 10 uM preincubated for 2 hrs followed by LPS addition and measured after 24 hrs by Griess reagent-based microplate reader analysis relative to control. As to conditions: time 26 hrs. It is filed as functional. More on the design: scale not given: the % may be the effect or the level left.

Calls of active or inactive are those of the source. The rule behind the calls is not given here.

With `O=C(Nc1ccc(I)cc1)c1ccc([N+](=O)[O-])o1`, the outcome in series [1], in series [2], in [3], in series [4], in series [5] and in series [6] was Active. In addition, the result in series [7], in [8], in [9], in [10], in series [11] and in series [12] was Active. The result in [13], in series [14] and in [15] was Active.
Turning to `CC1(C)CC[C@]2(C(=O)OCc3ccccc3)CC[C@]3(C)C(=CC[C@@H]4[C@@]5(C)C/C(=C/c6ccccc6[N+](=O)[O-])C(=O)[C@@](C)(CO)[C@@H]5CC[C@]43C)[C@@H]2C1`, in [16], the viability at 24 h, 40 µM came out at 65%. Also, the Activity stood at 7.94% in series [17] and 1.44% in [18].
The matching figures for `CC1(C)CC[C@]2(C(=O)OCc3ccccc3)CC[C@]3(C)C(=CC[C@@H]4[C@@]5(C)CCC(=O)[C@@](C)(COC(=O)CCC6CCCC6)[C@@H]5CC[C@]43C)[C@@H]2C1`: 105%, 0.76% and 0.34%.
The corresponding values for `CC1(C)CC[C@]2(C(=O)OCc3ccccc3)CC[C@]3(C)C(=CC[C@@H]4[C@@]5(C)CCC(=O)[C@@](C)(COC(=O)CCn6cccc6)[C@@H]5CC[C@]43C)[C@@H]2C1` are 96.9%, 12.08% and 7.3%.
The corresponding values for `CC1(C)CC[C@]2(C(=O)OCc3ccccc3)CC[C@]3(C)C(=CC[C@@H]4[C@@]5(C)CCC(=O)[C@@](C)(COC(=O)CCCCCNC(=O)CCCC[C@@H]6CCSS6)[C@@H]5CC[C@]43C)[C@@H]2C1` are 99.7%, 75.31% and 49.56%.
Take `CC1(C)CC[C@]2(C(=O)OCc3ccccc3)CC[C@]3(C)C(=CC[C@@H]4[C@@]5(C)CCC(=O)[C@@](C)(CO)[C@@H]5CC[C@]43C)[C@@H]2C1`: the viability at 24 h, 40 µM in series [16] is 106%. In addition, the figures for the Activity in [17] and in [18] were 13.6% and 13.3%, respectively.
`CC1(C)CC[C@]2(C(=O)OCc3ccccc3)CC[C@]3(C)C(=CC[C@@H]4[C@@]5(C)C/C(=C/c6ccc(Br)cc6)C(=O)[C@@](C)(CO)[C@@H]5CC[C@]43C)[C@@H]2C1`: the viability at 24 h, 40 µM in [16] was 92.9%. In addition, the Activity came to 10.62% in series [17] and 6.09% in [18].
On to `CC[C@H](C)[C@H](NC(=O)CCCC[C@@H]1CCSS1)C(=O)OC[C@]1(C)C(=O)CC[C@@]2(C)[C@H]1CC[C@]1(C)[C@@H]2CC=C2[C@@H]3CC(C)(C)CC[C@]3(C(=O)OCc3ccccc3)CC[C@]21C`, for which the viability at 24 h, 40 µM in [16] came out at 96%. In addition, the Activity in series [17] is recorded as 25.3%; in series [18] it was 17.94%.
The matching figures for `COCC(=O)OC[C@]1(C)C(=O)CC[C@@]2(C)[C@H]1CC[C@]1(C)[C@@H]2CC=C2[C@@H]3CC(C)(C)CC[C@]3(C(=O)OCc3ccccc3)CC[C@]21C`: 105%, 61.15% and 42.74%.
The matching figures for `CC1(C)CC[C@]2(C(=O)OCc3ccccc3)CC[C@]3(C)C(=CC[C@@H]4[C@@]5(C)CCC(=O)[C@@](C)(COC(=O)c6cc7ccccc7[nH]6)[C@@H]5CC[C@]43C)[C@@H]2C1`: 110%, 42.11% and 22.29%.

These data come from ChEMBL document CHEMBL5537127, “Design and synthesis of novel hederagonic acid analogs as potent anti-inflammatory compounds capable of protecting against LPS-induced acute lung injury” (Eur J Med Chem, 2024).
